In BigSolDB 2.1:

CC(=O)Nc1ccc(O)cc1
solubility (mole fraction)
Settings	293.15 K	298.15 K	303.15 K	308.15 K	313.15 K
in ethanol	0.0505	0.0546	0.062	0.067	0.0705
in propylene glycol	0.0483	0.0516	0.0603	0.0664	0.0752
